Results taken from patent US20230085307A1, “PYRIDAZINONE COMPOUND AND HERBICIDE” (NISSAN CHEMICAL CORPORATION, priority 2019, published 2023).

Experiments:
lambsquarters [1] = experiment: Test Example 5: herbicidal effect by foliage application, plastic box (Table 20, symbol O); assay type: in vivo, lambsquarters (Chenopodium album); details: foliage application; for effect on lambsquarters (O): 3 weeks after application
In short: (§1)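 Plants were sown into sterilized diluvial soil under about 1.5 cm cover and kept in a greenhouse at 25° C. to 30° C. Fourteen days on, foliage received an even spray of the diluted emulsion. Herbicidal or crop effect was judged three weeks afterwards.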

velvetleaf [2] = experiment: Test Example 4: herbicidal effect by soil treatment (Table 19, symbol M); assay type: in vivo, velvetleaf (Abutilon theophrasti)
In short: (§2)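 In this soil treatment, the formulated compound reached the seeds only through the soil: seeds were buried about 1.5 cm deep in sterilized diluvial soil, then the diluted emulsion was sprayed over the surface. After three weeks at 25° C. to 30° C. in a greenhouse, effects were graded on criteria from an earlier test.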

persian speedwell = experiment: Test Example 4: herbicidal effect by soil treatment (Table 19, symbol R); assay type: in vivo, Persian speedwell (Veronica persica)
In short: as §2

Chinese sprangletop = experiment: Test Example 3: herbicidal effect by foliage application, Wagner pot (Table 18, symbol D); assay type: in vivo, chinese sprangletop (Leptochloa chinensis)
In short: (§3)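 Plants were sown in alluvial soil held under 0.1–0.5 cm standing water and grown 14 days in a greenhouse at 25–30 °C. An emulsifiable formulation, water-diluted to the set dose, was then sprayed onto the foliage, and effects were scored three weeks later using previously defined criteria.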

late watergrass [3] = experiment: Test Example 1: herbicidal activity, application before weed generation under submerged conditions (Table 16, symbol A); assay type: in vivo, late watergrass (Echinochloa oryzicola)
In short: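 Submerged Wagner pots (alluvial soil, 4 cm water) sown with weed seeds and planted with 2.5-leaf rice seedlings; emulsifiable concentrate diluted in water applied to water surface on sowing day. Held in greenhouse at 25-30 °C; injury scored 0-5 by herbicidal rate after three weeks.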

lambsquarters [4] = experiment: Test Example 4: herbicidal effect by soil treatment (Table 19, symbol O); assay type: in vivo, lambsquarters (Chenopodium album)
In short: as §2

velvetleaf [5] = experiment: Test Example 5: herbicidal effect by foliage application, plastic box (Table 20, symbol M); assay type: in vivo, velvetleaf (Abutilon theophrasti); details: foliage application; for effect on velvetleaf (M): 3 weeks after application
In short: as §1

blackgrass [6] = experiment: Test Example 4: herbicidal effect by soil treatment (Table 19, symbol J); assay type: in vivo, blackgrass (Alopecurus myosuroides)
In short: as §2

barnyard grass = experiment: Test Example 3: herbicidal effect by foliage application, Wagner pot (Table 18, symbol H); assay type: in vivo, barnyard grass (Echinochloa crus-galli)
In short: as §3

windgrass = experiment: Test Example 4: herbicidal effect by soil treatment (Table 19, symbol L); assay type: in vivo, windgrass (Apera spica-venti)
In short: as §2

southern crabgrass = experiment: Test Example 4: herbicidal effect by soil treatment (Table 19, symbol F); assay type: in vivo, southern crabgrass (Digitaria ciliaris)
In short: as §2

Italian ryegrass [7] = experiment: Test Example 4: herbicidal effect by soil treatment (Table 19, symbol K); assay type: in vivo, Italian ryegrass (Lolium multiflorum)
In short: as §2

Italian ryegrass [8] = experiment: Test Example 5: herbicidal effect by foliage application, plastic box (Table 20, symbol K); assay type: in vivo, Italian ryegrass (Lolium multiflorum); details: foliage application; for effect on Italian ryegrass (K): 3 weeks after application
In short: as §1

late watergrass [9] = experiment: Test Example 2: herbicidal activity, application during weed generation under submerged conditions (Table 17, symbol A); assay type: in vivo, late watergrass (Echinochloa oryzicola); details: application during weed generation, submerged conditions
In short: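 Effect on each weed is rated three weeks post-treatment, using the same scoring criteria as the preceding test. Plants grow from mixed-sown seed in flooded alluvial soil (4 cm water) at 25° C. to 30° C., and are treated at one to two leaves with diluted emulsion dropped onto the water.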

blackgrass [10] = experiment: Test Example 5: herbicidal effect by foliage application, plastic box (Table 20, symbol J); assay type: in vivo, blackgrass (Alopecurus myosuroides); details: foliage application; for effect on blackgrass (J): 3 weeks after application
In short: as §1

redroot pigweed = experiment: Test Example 5: herbicidal effect by foliage application, plastic box (Table 20, symbol N); assay type: in vivo, redroot pigweed (Amaranthus retroflexus); details: foliage application, AAH 320 g/ha, evaluated three weeks after application
In short: as §1

[11] = AAH 320 g/ha, evaluated three weeks after application
[12] = amount of applied herbicide 320 g/ha

SMILES | effect on lambsquarters (O) (lambsquarters [1]; 320 g/ha) | M: velvetleaf, herbicidal effect rating (velvetleaf [2]; AAH 320 g/ha) | R: persian speedwell, herbicidal effect rating (persian speedwell; AAH 320 g/ha) | herbicidal effect on D (Chinese sprangletop), rating 0-5 (Chinese sprangletop; 320 g/ha) | Herbicidal effect on A: late watergrass (grade 0-5) (late watergrass [3]; 320 g/ha applied herbicide) | O: lambsquarters, herbicidal effect rating (lambsquarters [4]; AAH 320 g/ha) | effect on velvetleaf (M) (velvetleaf [5]; 320 g/ha) | J: blackgrass, herbicidal effect rating (blackgrass [6]; AAH 320 g/ha) | herbicidal effect on H (barnyard grass), rating 0-5 (barnyard grass; 320 g/ha) | L: windgrass, herbicidal effect rating (windgrass; AAH 320 g/ha) | F: southern crabgrass, herbicidal effect rating (southern crabgrass; AAH 320 g/ha) | K: Italian ryegrass, herbicidal effect rating (Italian ryegrass [7]; AAH 320 g/ha) | effect on Italian ryegrass (K) (Italian ryegrass [8]; 320 g/ha) | herbicidal effect rating, A: late watergrass (late watergrass [9]; AAH 320 g/ha) | effect on blackgrass (J) (blackgrass [10]; 320 g/ha) | also measured
C#CC(C)Oc1ccc(-c2sc3ccccc3c2-c2c(O)c(C)nn(C)c2=O)cc1 (racemic) [1-217] | 5 (Herbicidal rate of 90% or more (almost completely withered)) | 0 (Herbicidal rate of 5% or less (almost no effect)) | 5 (Herbicidal rate of 90% or more (almost completely withered)) | 5 (Herbicidal rate of 90% or more (almost completely withered)) | 4 (Herbicidal rate of 70% or more and less than 90%) | 2 (Herbicidal rate of 20% or more and less than 40%) | 5 (Herbicidal rate of 90% or more (almost completely withered)) | 0 (Herbicidal rate of 5% or less (almost no effect)) | 5 (Herbicidal rate of 90% or more (almost completely withered)) | 0 (Herbicidal rate of 5% or less (almost no effect)) | 0 (Herbicidal rate of 5% or less (almost no effect)) | 0 (Herbicidal rate of 5% or less (almost no effect)) | 5 (Herbicidal rate of 90% or more (almost completely withered)) | 0 (Herbicidal rate of 5% or less (almost no effect)) | 4 (Herbicidal rate of 70% or more and less than 90%) | 
C#CC(C)Oc1ccc(-c2sc3ccccc3c2-c2c(OCOCCOC)c(C)nn(C)c2=O)cc1 (racemic) [1-218] |  |  |  |  |  |  |  |  |  |  |  |  |  |  |  | effect on lambsquarters (O) (lambsquarters [1]; 187 g/ha): 4 (Herbicidal rate of 70% or more and less than 90%); M: velvetleaf, herbicidal effect rating (velvetleaf [2]; AAH 187 g/ha): 0 (Herbicidal rate of 5% or less (almost no effect)); R: persian speedwell, herbicidal effect rating (persian speedwell; AAH 187 g/ha): 5 (Herbicidal rate of 90% or more (almost completely withered)); herbicidal effect on D (Chinese sprangletop), rating 0-5 (Chinese sprangletop; 100 g/ha): 4 (Herbicidal rate of 70% or more and less than 90%); Herbicidal effect on A: late watergrass (grade 0-5) (late watergrass [3]; 100 g/ha applied herbicide): 4 (Herbicidal rate of 70% or more and less than 90%); O: lambsquarters, herbicidal effect rating (lambsquarters [4]; AAH 187 g/ha): 3 (Herbicidal rate of 40% or more and less than 70%); effect on velvetleaf (M) (velvetleaf [5]; 187 g/ha): 4 (Herbicidal rate of 70% or more and less than 90%); J: blackgrass, herbicidal effect rating (blackgrass [6]; AAH 187 g/ha): 0 (Herbicidal rate of 5% or less (almost no effect)); herbicidal effect on H (barnyard grass), rating 0-5 (barnyard grass; 100 g/ha): 4 (Herbicidal rate of 70% or more and less than 90%); L: windgrass, herbicidal effect rating (windgrass; AAH 187 g/ha): 0 (Herbicidal rate of 5% or less (almost no effect)); F: southern crabgrass, herbicidal effect rating (southern crabgrass; AAH 187 g/ha): 0 (Herbicidal rate of 5% or less (almost no effect)); K: Italian ryegrass, herbicidal effect rating (Italian ryegrass [7]; AAH 187 g/ha): 0 (Herbicidal rate of 5% or less (almost no effect)); effect on Italian ryegrass (K) (Italian ryegrass [8]; 187 g/ha): 2 (Herbicidal rate of 20% or more and less than 40%); herbicidal effect rating, A: late watergrass (late watergrass [9]; AAH 100 g/ha): 3 (Herbicidal rate of 40% or more and less than 70%); effect on blackgrass (J) (blackgrass [10]; 187 g/ha): 4 (Herbicidal rate of 70% or more and less than 90%)
CCC(COc1ccc(-c2sc3ccccc3c2-c2c(O)c(C)nn(C)c2=O)cc1)OC (racemic) [1-230] | 5 (Herbicidal rate of 90% or more (almost completely withered)) | 4 (Herbicidal rate of 70% or more and less than 90%) | 5 (Herbicidal rate of 90% or more (almost completely withered)) | 5 (Herbicidal rate of 90% or more (almost completely withered)) | 5 (Herbicidal rate of 90% or more (almost completely withered)) | 5 (Herbicidal rate of 90% or more (almost completely withered)) | 5 (Herbicidal rate of 90% or more (almost completely withered)) | 4 (Herbicidal rate of 70% or more and less than 90%) | 5 (Herbicidal rate of 90% or more (almost completely withered)) | 0 (Herbicidal rate of 5% or less (almost no effect)) | 0 (Herbicidal rate of 5% or less (almost no effect)) | 4 (Herbicidal rate of 70% or more and less than 90%) | 4 (Herbicidal rate of 70% or more and less than 90%) | 4 (Herbicidal rate of 70% or more and less than 90%) | 5 (Herbicidal rate of 90% or more (almost completely withered)) | 
Cc1nn(C)c(=O)c(-c2c(-c3ccc(OCCBr)cc3)sc3ccccc23)c1O [1-204] | 4 (Herbicidal rate of 70% or more and less than 90%) | 0 (Herbicidal rate of 5% or less (almost no effect)) | 4 (Herbicidal rate of 70% or more and less than 90%) | 2 (Herbicidal rate of 20% or more and less than 40%) | 3 (Herbicidal rate of 40% or more and less than 70%) | 3 (Herbicidal rate of 40% or more and less than 70%) | 5 (Herbicidal rate of 90% or more (almost completely withered)) | 0 (Herbicidal rate of 5% or less (almost no effect)) | 4 (Herbicidal rate of 70% or more and less than 90%) | 0 (Herbicidal rate of 5% or less (almost no effect)) | 0 (Herbicidal rate of 5% or less (almost no effect)) | 0 (Herbicidal rate of 5% or less (almost no effect)) | 3 (Herbicidal rate of 40% or more and less than 70%) | 0 (Herbicidal rate of 5% or less (almost no effect)) | 0 (Herbicidal rate of 5% or less (almost no effect)) | 
Cc1nn(C)c(=O)c(-c2c(-c3ccc(OC(F)F)cc3)sc3ccc(F)cc23)c1OC(=O)c1ccco1 [2-287] |  |  |  |  | 5 (Herbicidal rate of 90% or more (almost completely withered)) |  |  |  |  |  |  |  |  | 3 (Herbicidal rate of 40% or more and less than 70%) |  | O: lambsquarters, herbicidal effect (criteria 0-5) (lambsquarters [1]; [11]): 5 (Herbicidal rate of 90% or more (almost completely withered)); herbicidal effect on M: velvetleaf (velvetleaf [2]; [12]): 5 (Herbicidal rate of 90% or more (almost completely withered)); herbicidal effect on R: persian speedwell (persian speedwell; [12]): 5 (Herbicidal rate of 90% or more (almost completely withered)); N: redroot pigweed, herbicidal effect (criteria 0-5) (redroot pigweed): 5 (Herbicidal rate of 90% or more (almost completely withered)); herbicidal effect on D: Chinese sprangletop (Chinese sprangletop; [12]): 3 (Herbicidal rate of 40% or more and less than 70%); herbicidal effect on O: lambsquarters (lambsquarters [4]; [12]): 5 (Herbicidal rate of 90% or more (almost completely withered)); M: velvetleaf, herbicidal effect (criteria 0-5) (velvetleaf [5]; [11]): 5 (Herbicidal rate of 90% or more (almost completely withered)); herbicidal effect on H: barnyard grass (barnyard grass; [12]): 5 (Herbicidal rate of 90% or more (almost completely withered)); herbicidal effect on L: windgrass (windgrass; [12]): 3 (Herbicidal rate of 40% or more and less than 70%); herbicidal effect on F: southern crabgrass (southern crabgrass; [12]): 4 (Herbicidal rate of 70% or more and less than 90%); herbicidal effect on K: Italian ryegrass (Italian ryegrass [7]; [12]): 5 (Herbicidal rate of 90% or more (almost completely withered)); K: Italian ryegrass, herbicidal effect (criteria 0-5) (Italian ryegrass [8]; [11]): 5 (Herbicidal rate of 90% or more (almost completely withered)); J: blackgrass, herbicidal effect (criteria 0-5) (blackgrass [10]; [11]): 5 (Herbicidal rate of 90% or more (almost completely withered))
